Five compounds from PMC9653339, “Revisiting the anticancer properties of phosphane(9-ribosylpurine-6-thiolato)gold(I) complexes and their 9H-purine precursors” (Journal of Biological Inorganic Chemistry, 2022) can be followed below.

Data set [1] relates to HCT-116^p53−/− (p53 knockout mutant) colon carcinoma cells. The data set can be described thus: MTT cell viability assay, HCT-116 p53-/-. Format: cell-based, human. The note with it: 72 h. The procedure: (§1) Cells were seeded in 96-well microtiter plates (Sarstedt) with a cell density of 0.05 × 10^6 cells per ml and 100 µL per well and incubated for 24 h. A dilution series of test compounds was added to the wells, ranging in twelve steps from 100 µM to 5 nM. As a control, equal amounts of DMSO were added. Treated cells were further incubated for 72 h. Then, 12.5 µL per well of MTT solution (0.05% in phosphate-buffered saline (PBS)) was added, followed by another 2 h of incubation. The plates were centrifuged, the medium was discarded and 25 µL per well of SDS solution in DMSO (10% SDS, 0.6% AcOH in DMSO) was added to dissolve the formazan. The plates were incubated for a further hour. Absorbances at 570 nm and 630 nm were measured using a plate reader (Tecan). Background absorbance (630 nm) was subtracted from the formazan signal (570 nm). The resulting absorbance was directly proportional to the amount of viable cells. The control was normalized to 100% viable cells and viability of cells treated with test compounds was calculated accordingly. IC50 values were calculated based on a sigmoidal fit model using GraphPad Prism. Means and SD were calculated from at least four independent experiments.
Background: Tetrazolium dyes change colour on reduction, which living cells bring about.

Data set [2] relates to EA.hy926 endothelial hybrid cells. In words: MTT cell viability assay, EA.hy926. Type of data set: cell-based, human. The protocol:
as §1, with “All complexes stable in solution were investigated for their anti-proliferative effect on nine human cancer cell lines, using the MTT-based cell viability assay. Cells” for “Cells”

The next data set has as its system U-87 glioblastoma cells. The data set can be described thus: MTT cell viability assay, U-87. Type of data set: cell-based, human. The note with it: 72 h. The procedure: as §1, with “All complexes stable in solution were investigated for their anti-proliferative effect on nine human cancer cell lines, using the MTT-based cell viability assay. Cells” for “Cells”
In data set [3] the test system is mdr KB-V1^Vbl cervix carcinoma cells. In words: MTT cell viability assay, KB-V1 (with and without verapamil). Type of data set: cell-based, human. The conditions noted are these: 72 h, without verapamil. The procedure:
as §1, with “All complexes stable in solution were investigated for their anti-proliferative effect on nine human cancer cell lines, using the MTT-based cell viability assay. Cells” for “Cells”

The subject of data set [4] is 518A2 melanoma cells. In words: Lactate dehydrogenase (LDH) cytotoxicity assay. Type of data set: cell-based, human. The conditions noted are these: 518A2 cells, 10 µM, 24 h. The procedure: 518A2 melanoma cells were seeded in 96-well flat bottom microtiter plates (Sarstedt) with 100 µL per well and a cell density of 0.05 × 10^6 cells per mL. Wells containing medium alone were additionally set for background measurement. Cells were allowed to grow overnight followed by substance treatment with 11.1 µL of tenfold concentrated test compound dilutions and further incubated for 24 h. As a positive control, 10 µL per well of lysis solution (9% Triton-X 100 in Millipore H2O) was added and incubated for 45 min to maintain maximum LDH release, the same amount was added to maximum release background correction wells containing only medium. After centrifugation (4 °C, 150×g, 5 min), 50 µL of the supernatant of each well was transferred on a fresh microtiter plate followed by addition of 50 µL LDH assay buffer (223 mg of 2-p-iodophenyl-3-p-nitrophenyl-5-phenyltetrazolium chloride, 57 mg of N-methyl-phenazonium methyl sulfate, 575 mg of […], 3.2 g of lactic acid in 480 ml 200 mM Tris–Cl, pH 8.0) per well. The plate was incubated in the dark for 10–30 min at room temperature. Then 50 µL stop solution (1 M acetic acid) was added per well and the absorbance was measured at 490 nm. The mean value of background wells with medium alone was subtracted from the negative control and test wells. Additionally, the mean value of volume correction wells was subtracted from maximum LDH release wells. The percentage of LDH release was calculated, with the maximum LDH release set as 100% and the negative control as 0% release. Means and SD were calculated from at least three independent experiments.

In data set [5] the test system is MCF-7 mamma carcinoma cells. In words: MTT cell viability assay, MCF-7. Type of data set: cell-based, human. The procedure:
as §1, with “All complexes stable in solution were investigated for their anti-proliferative effect on nine human cancer cell lines, using the MTT-based cell viability assay. Cells” for “Cells”

Data set [6] relates to HeLa cervix carcinoma cells. The data set can be described thus: MTT cell viability assay, HeLa. Format: cell-based, human. The note with it: 72 h. The protocol: as §1, with “All complexes stable in solution were investigated for their anti-proliferative effect on nine human cancer cell lines, using the MTT-based cell viability assay. Cells” for “Cells”
Data set [7] has as its system HT-29 colon carcinoma cells. In words: MTT cell viability assay, HT-29. Format: cell-based, human. The protocol:
as §1, with “All complexes stable in solution were investigated for their anti-proliferative effect on nine human cancer cell lines, using the MTT-based cell viability assay. Cells” for “Cells”

Data set [8] has as its system caspase 3/7 in 518A2 melanoma cells. The data set can be described thus: Caspase 3/7 activation. Format: cell-based, human. The note with it: 518A2 cells, 10 µM, 6 h. The procedure: The assay was conducted, following manufacturer’s instructions using the Cell Meter Caspase 3/7 activity apoptosis assay kit (AAT Bioquest). Briefly, 518A2 melanoma cells were seeded in 96-well flat black microtiter plates with a density of 0.22 × 10^6 cells per mL and 90 µL per well. After 24 h of incubation, 10 µL per well of tenfold diluted test compounds was added, and the cells were incubated for a further 6 h. Subsequently, 100 µL per well of Caspase 3/7 substrate working solution was added and incubated for 1 h in the dark at room temperature. The fluorescence was measured using a micro-plate reader (Tecan) at ex/em = 490/525 nm.

Data set [9] deals with 518A2 melanoma cells. The data set can be described thus: MTT cell viability assay, 518A2. Format: cell-based, human. The protocol: as §1, with “All complexes stable in solution were investigated for their anti-proliferative effect on nine human cancer cell lines, using the MTT-based cell viability assay. Cells” for “Cells”
Another data set has as its system tubulin. In words: Tubulin polymerisation assay. Type of data set: biochemical. The conditions noted are these: in vitro, turbidity at 340 nm. The protocol:
First, 2 × polymerization buffer was prepared, which consisted of 385 µL Brinkley renaturing buffer 80 (BRB 80), 100 µL glycerol, and 15 µL GTP (100 mM). 50 µL of freshly prepared 2 × polymerization buffer was added to µClear black well plates. Subsequently, 11.1 µL each of a tenfold substance pre-dilution in BRB80 was added. In addition, a combretastatin A-4 positive control was prepared analogously. After rapid addition of 50 µL of tubulin per well, the measurement was started on the plate reader at 340 nm. The plate reader measured at 20 s intervals for at least 120 min until the measurement plateau was reached. For evaluation, OD 340 nm was plotted versus time.

For data set [10], the system named is mdr MCF-7^Topo mamma carcinoma cells. The data set can be described thus: MTT cell viability assay, MCF-7Topo. Type of data set: cell-based, human. The conditions noted are these: 72 h. The protocol: as §1, with “All complexes stable in solution were investigated for their anti-proliferative effect on nine human cancer cell lines, using the MTT-based cell viability assay. Cells” for “Cells”

The test system of data set [11] is human adult dermal fibroblasts HDFa. In words: MTT cell viability assay, HDFa. Type of data set: cell-based. The note with it: 72 h, non-malignant fibroblasts. The procedure: as §1, with “All complexes stable in solution were investigated for their anti-proliferative effect on nine human cancer cell lines, using the MTT-based cell viability assay. Cells” for “Cells”

Values joined by “and” are separate entries in the source; they are usually repeats but may differ in a detail not shown here. Equal values may be shown once. Read-outs that look alike come from different tables or passages of the source. Where only a bound is given, the exact number is not on record here.

As for `Sc1ncnc2nc[nH]c12` [6-MP, 6-Mercaptopurine, reference compound], the IC50 (in general, the concentration that gives 50% inhibition) in data set [1] (Homo sapiens, Colon carcinoma cell) came to 580 ± 50 nM; in [2] (Homo sapiens, EA.hy 926, 72 h), 920 ± 40 nM; with U-87 glioblastoma cells (Homo sapiens) it was 1400 ± 130 nM; in data set [3] (Homo sapiens, KB-V1/Vbl), 1600 ± 100 nM; in data set [5] (Homo sapiens, MCF7, 72 h), 3700 ± 260 nM; in [6] (Homo sapiens, HeLa) it was 1400 ± 100 nM. Also, the half-inhibitory concentration (IC50) in [7] (Homo sapiens, HT-29, 72 h) is 1400 ± 60 nM; in the data set with 518A2 melanoma cells [9] (Homo sapiens, 518A2, 72 h) it was 11000 ± 1100 nM; in data set [10] (Homo sapiens, MCF7/Topo), 6400 ± 460 nM; in data set [11] (Homo sapiens, HDFa), greater than 50000 nM. Besides, in the data set with 518A2 melanoma cells [4], the “LDH release (necrosis)” value was “no enzyme could be detected”. For the same compound, the “Caspase 3/7 activity” value in [8] is “increased caspase activity levels”. Further, in the data set on tubulin, the “Inhibition of tubulin polymerization” value was “inhibited tubulin polymerization”.
Take `Nc1nc2nc[nH]c2c(=S)[nH]1` [6-TG, 6-thioguanine, reference compound]: the half-maximal inhibitory concentration (IC50) in data set [2] (Homo sapiens, EA.hy 926, 72 h) worked out at 250 ± 20 nM; with U-87 glioblastoma cells (Homo sapiens), 1700 ± 80 nM; in data set [3] (Homo sapiens, KB-V1/Vbl), 500 ± 50 nM; in [5] (Homo sapiens, MCF7, 72 h), 980 ± 80 nM; in data set [6] (Homo sapiens, HeLa), 190 ± 10 nM; in data set [7] (Homo sapiens, HT-29, 72 h), 1200 ± 80 nM. The half-inhibitory concentration (IC50) with 518A2 melanoma cells [9] (Homo sapiens, 518A2, 72 h) is 5200 ± 450 nM; in data set [10] (Homo sapiens, MCF7/Topo) it was 900 ± 90 nM; in data set [11] (Homo sapiens, HDFa), greater than 50000 nM. For the same compound, the “LDH release (necrosis)” value in the data set with 518A2 melanoma cells [4] is on record as “no enzyme could be detected”. In addition, the “Caspase 3/7 activity” value in data set [8] is on record as “increased caspase activity levels”. Also, in the data set on tubulin, the “Inhibition of tubulin polymerization” value is given as “inhibited tubulin polymerization”.
`CC(=O)OC[C@H]1O[C@@H]([S-])[C@H](OC(C)=O)[C@@H](OC(C)=O)[C@@H]1OC(C)=O.CCP(CC)CC.[Au+]` [Auranofin, auranofin]: the IC50 turned out to be 820 ± 40 nM in [2] (72 h); 2400 ± 240 nM in the data set on U-87 glioblastoma cells; 1900 ± 70 nM in [3]; 2200 ± 220 nM in data set [5] (72 h, read-out: IC50 MCF7); 2000 ± 180 nM in data set [7] (72 h); 4700 ± 430 nM in [10] (read-out: IC50 MCF7^Topo). Also, in the data set on 518A2 melanoma cells [4], the “LDH release (necrosis)” value is reported as “no enzyme could be detected”. In addition, the “Caspase 3/7 activity” value in data set [8] was “increased caspase activity levels”. Also, the “Inhibition of tubulin polymerization” value with tubulin is “microtubule-destabilizing agent”.
For `OC[C@H]1O[C@@H](n2cnc3c([S][Au][PH](c4ccccc4)(c4ccccc4)c4ccccc4)ncnc32)[C@H](O)[C@@H]1O` [Complex 5, (1,7-Dihydro-6H-purine-9-β-D-ribofuranosyl-6-thiolato) (triphenylphosphane) gold(I)], the half-inhibitory concentration (IC50) turned out to be 300 ± 70 nM in [1]; 340 ± 30 nM in data set [2] (72 h); 1700 ± 150 nM with U-87 glioblastoma cells; 2400 ± 220 nM in [5] (72 h, read-out: IC50 MCF7); 190 ± 10 nM in data set [6]; 1200 ± 90 nM in data set [7] (72 h). For the same compound, the concentration for half-maximal inhibition (IC50) with 518A2 melanoma cells [9] (72 h) came out at 2600 ± 250 nM; in [10] (read-out: IC50 MCF7^Topo) it was 1700 ± 140 nM; in [11], 36000 ± 1700 nM. Moreover, the “LDH release (necrosis)” value in the data set with 518A2 melanoma cells [4] was “no enzyme could be detected”. Also, in [8], the “Caspase 3/7 activity” value is “increased caspase activity levels”. Further, in the data set with tubulin, the “Inhibition of tubulin polymerization” value is listed as “merely slight inhibition of tubulin polymerization”.
For the compound `Nc1nc([S][Au][PH](c2ccccc2)(c2ccccc2)c2ccccc2)c2ncn([C@@H]3O[C@H](CO)[C@@H](O)[C@H]3O)c2n1` [Complex 6, (2-Amino-1,7-dihydro-6H-purine-9-β-D-ribofuranosyl-6-thiolato) (triphenylphosphane) gold(I)], the IC50 in [1] is 1400 ± 300 nM; in [2] (72 h), 3800 ± 130 nM; in the data set with U-87 glioblastoma cells it was 1200 ± 120 nM; in data set [3], 910 ± 90 nM; in data set [5] (72 h, read-out: IC50 MCF7), 5800 ± 570 nM; in data set [6] it was 2400 ± 140 nM. Moreover, the half-maximal inhibitory concentration (IC50) was 3100 ± 190 nM in [7] (72 h); ~3500 nM and 3500 nM with 518A2 melanoma cells [9] (72 h); 3200 ± 290 nM in data set [10] (read-out: IC50 MCF7^Topo); 36000 ± 3000 nM in [11]. In addition, the “LDH release (necrosis)” value with 518A2 melanoma cells [4] is “no enzyme could be detected”. For the same compound, the “Caspase 3/7 activity” value in data set [8] is “even exceeded the effects of the three controls”. The “Inhibition of tubulin polymerization” value in the data set with tubulin is recorded as “merely slight inhibition of tubulin polymerization”.
